From ChEMBL document CHEMBL1743341, “Cytochrome p450 enzymes mechanism based inhibitors: common sub-structures and reactivity” (Curr Drug Metab, 2005)
Blank lines part the entries; values can stand above or below the compound they belong to.

What was measured:
[1] = target: Cytochrome P450 11B1, mitochondrial (Bos taurus, UniProt P15150); assay: Mechanism based inhibition of bovine cytochrome P450 CYP11B1; format: ADME; settings: cattle
Cytochrome P450 3A12 = Cytochrome P450 3A12 (Canis lupus familiaris, UniProt P24463); assay: Mechanism based inhibition of dog cytochrome P450 CYP3A12; format: ADME
CYP2B11 [2] = target: T1, CYP2B11 (Canis lupus familiaris, UniProt P24460); assay: (§1) Mechanism based inhibition of dog cytochrome P450 CYP2B11 measured by Diazepam N1-demethylation using recombinant enzyme; format: ADME; settings: dog, recombinant CYP2B11, probe diazepam (N1-demethylation)
Cytochrome P450 2B11 [3] = target: T2, Cytochrome P450 2B11 (Canis lupus familiaris, UniProt P24460); assay: as §1; format: ADME
CYP2B11 [4] = target: T1, CYP2B11; assay: (§2) Mechanism based inhibition of dog cytochrome P450 CYP2B11 measured by Diazepam N1-demethylation using liver microsomes; format: ADME, Microsome; settings: dog, liver microsomes, probe diazepam (N1-demethylation)
Cytochrome P450 2B11 [5] = target: T2, Cytochrome P450 2B11; assay: as §2; format: ADME, Microsome
Cytochrome P450 1A2 [6] = target: T3, Cytochrome P450 1A2 (Homo sapiens, UniProt P05177); assay: Mechanism based inhibition of human cytochrome P450 1A2 measured by 7-ethoxyresorufin O-deethylation (EROD); format: ADME
T3 sequence (P05177 whole entry): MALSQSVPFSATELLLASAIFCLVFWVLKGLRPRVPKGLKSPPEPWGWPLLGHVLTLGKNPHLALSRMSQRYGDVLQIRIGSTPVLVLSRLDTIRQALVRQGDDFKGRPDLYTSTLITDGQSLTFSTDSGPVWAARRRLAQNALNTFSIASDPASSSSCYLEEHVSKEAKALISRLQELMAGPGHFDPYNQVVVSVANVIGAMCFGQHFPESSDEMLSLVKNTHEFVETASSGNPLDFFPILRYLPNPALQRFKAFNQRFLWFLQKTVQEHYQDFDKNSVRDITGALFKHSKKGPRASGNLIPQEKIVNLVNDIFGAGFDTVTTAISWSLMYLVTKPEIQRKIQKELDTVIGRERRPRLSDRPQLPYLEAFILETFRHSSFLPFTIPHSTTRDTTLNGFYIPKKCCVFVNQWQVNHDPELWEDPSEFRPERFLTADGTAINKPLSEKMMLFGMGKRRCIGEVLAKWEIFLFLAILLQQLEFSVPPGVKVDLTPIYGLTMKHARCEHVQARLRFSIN

CYP1A1 = target: T4, CYP1A1 (Rattus norvegicus, UniProt P00185); assay: (§3) Mechanism based inhibition of rat cytochrome P450 CYP1A1 measured by 7-ethoxyresorufin O-deethylation (EROD); format: ADME; settings: rat, probe 7-ethoxyresorufin (O-deethylation, EROD)
T4 sequence (P00185 whole entry): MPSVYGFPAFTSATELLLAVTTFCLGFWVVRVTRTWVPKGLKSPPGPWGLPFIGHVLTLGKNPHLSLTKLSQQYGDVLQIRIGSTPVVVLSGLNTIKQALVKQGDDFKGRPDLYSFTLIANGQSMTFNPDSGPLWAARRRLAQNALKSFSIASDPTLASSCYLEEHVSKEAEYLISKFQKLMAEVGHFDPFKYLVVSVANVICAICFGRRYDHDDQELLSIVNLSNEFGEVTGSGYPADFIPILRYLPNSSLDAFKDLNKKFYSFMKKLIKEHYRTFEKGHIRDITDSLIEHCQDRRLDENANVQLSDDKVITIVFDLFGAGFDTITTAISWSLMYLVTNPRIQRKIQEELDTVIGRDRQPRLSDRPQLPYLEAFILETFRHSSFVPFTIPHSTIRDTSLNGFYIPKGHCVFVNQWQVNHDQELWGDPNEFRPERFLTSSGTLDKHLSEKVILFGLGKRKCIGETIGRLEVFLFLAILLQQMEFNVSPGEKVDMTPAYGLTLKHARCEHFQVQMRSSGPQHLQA

Cytochrome P450 1A1 [7] = target: T5, Cytochrome P450 1A1 (Rattus norvegicus, UniProt P00185); assay: as §3; format: ADME
T5 sequence (P00185 whole entry): T4 sequence (P00185 whole entry)

Cytochrome P450 1A1 [8] = target: T6, Cytochrome P450 1A1 (Homo sapiens, UniProt P04798); assay: Mechanism based inhibition of human cytochrome P450 1A1 measured by 7-ethoxyresorufin O-deethylation (EROD); format: ADME
T6 sequence (P04798 whole entry): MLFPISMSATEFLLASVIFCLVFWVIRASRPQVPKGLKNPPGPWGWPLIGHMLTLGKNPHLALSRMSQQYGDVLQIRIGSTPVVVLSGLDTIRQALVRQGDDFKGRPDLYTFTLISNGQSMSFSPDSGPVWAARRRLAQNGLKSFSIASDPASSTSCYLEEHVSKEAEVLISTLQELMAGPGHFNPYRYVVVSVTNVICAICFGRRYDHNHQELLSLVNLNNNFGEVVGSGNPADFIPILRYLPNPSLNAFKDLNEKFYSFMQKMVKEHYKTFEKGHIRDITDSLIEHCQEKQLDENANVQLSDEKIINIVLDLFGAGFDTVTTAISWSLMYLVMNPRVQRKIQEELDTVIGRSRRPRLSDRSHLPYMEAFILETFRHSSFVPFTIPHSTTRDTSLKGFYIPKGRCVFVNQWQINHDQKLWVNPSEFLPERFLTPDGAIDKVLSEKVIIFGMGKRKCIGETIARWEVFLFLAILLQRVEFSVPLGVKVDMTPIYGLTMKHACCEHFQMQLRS

Cytochrome P450 1A2 [9] = target: T7, Cytochrome P450 1A2 (Rattus norvegicus, UniProt P04799); assay: (§4) Mechanism based inhibition of rat cytochrome P450 CYP1A2; format: ADME
T7 sequence (P04799 whole entry): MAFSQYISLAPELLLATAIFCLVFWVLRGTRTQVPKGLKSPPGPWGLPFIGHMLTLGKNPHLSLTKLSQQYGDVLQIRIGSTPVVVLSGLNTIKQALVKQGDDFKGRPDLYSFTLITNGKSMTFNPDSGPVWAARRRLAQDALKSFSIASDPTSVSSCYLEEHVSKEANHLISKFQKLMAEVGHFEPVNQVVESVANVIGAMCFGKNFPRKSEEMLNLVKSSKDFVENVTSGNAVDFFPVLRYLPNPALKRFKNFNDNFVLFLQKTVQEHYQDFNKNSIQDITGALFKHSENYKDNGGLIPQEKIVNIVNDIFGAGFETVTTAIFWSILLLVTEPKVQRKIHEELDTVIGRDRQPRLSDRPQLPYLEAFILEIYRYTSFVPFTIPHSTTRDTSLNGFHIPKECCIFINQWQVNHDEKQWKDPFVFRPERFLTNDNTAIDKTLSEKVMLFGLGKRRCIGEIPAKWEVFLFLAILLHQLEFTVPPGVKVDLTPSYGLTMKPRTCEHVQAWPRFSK

CYP1A2 = target: T8, CYP1A2 (Rattus norvegicus, UniProt P04799); assay: as §4; format: ADME; settings: rat
T8 sequence (P04799 whole entry): T7 sequence (P04799 whole entry)

Cytochrome P450 4A4 = Cytochrome P450 4A4 (Oryctolagus cuniculus, UniProt P10611); assay: Mechanism based inhibition of rabbit cytochrome P450 CYP4A4; format: ADME
Cytochrome P450 3A11 = Cytochrome P450 3A11 (Mus musculus, UniProt Q64459); assay: Mechanism based inhibition of mouse cytochrome P450 CYP3A11; format: ADME
Cytochrome P450 2E1 [10] = target: T9, Cytochrome P450 2E1 (Rattus norvegicus, UniProt P05182); assay: Mechanism based inhibition of rat cytochrome P450 CYP2E1; format: ADME
CYP2E1 = CYP2E1 (Rattus norvegicus, UniProt P05182); assay: (§5) Mechanism based inhibition of rat cytochrome P450 CYP2E1 measured by P-nitrophenol (PNP) hydroxylase activity; format: ADME; settings: rat, probe p-nitrophenol (PNP hydroxylase activity)
Cytochrome P450 2E1 [11] = target: T9, Cytochrome P450 2E1; assay: as §5; format: ADME

T9 sequence (P05182 whole entry): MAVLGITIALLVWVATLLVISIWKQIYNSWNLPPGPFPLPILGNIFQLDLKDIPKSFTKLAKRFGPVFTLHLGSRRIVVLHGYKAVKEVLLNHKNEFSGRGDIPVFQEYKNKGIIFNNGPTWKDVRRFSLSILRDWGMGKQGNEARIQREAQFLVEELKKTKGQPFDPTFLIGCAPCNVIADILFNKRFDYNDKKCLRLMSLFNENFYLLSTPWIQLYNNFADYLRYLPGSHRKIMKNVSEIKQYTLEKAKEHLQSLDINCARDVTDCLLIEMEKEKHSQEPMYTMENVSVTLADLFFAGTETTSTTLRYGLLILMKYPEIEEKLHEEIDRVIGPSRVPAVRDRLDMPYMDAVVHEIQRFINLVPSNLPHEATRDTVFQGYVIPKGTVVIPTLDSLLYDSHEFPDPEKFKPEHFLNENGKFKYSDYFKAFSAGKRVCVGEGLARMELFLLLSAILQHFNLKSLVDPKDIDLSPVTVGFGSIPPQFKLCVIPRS
T2 sequence (P24460 whole entry): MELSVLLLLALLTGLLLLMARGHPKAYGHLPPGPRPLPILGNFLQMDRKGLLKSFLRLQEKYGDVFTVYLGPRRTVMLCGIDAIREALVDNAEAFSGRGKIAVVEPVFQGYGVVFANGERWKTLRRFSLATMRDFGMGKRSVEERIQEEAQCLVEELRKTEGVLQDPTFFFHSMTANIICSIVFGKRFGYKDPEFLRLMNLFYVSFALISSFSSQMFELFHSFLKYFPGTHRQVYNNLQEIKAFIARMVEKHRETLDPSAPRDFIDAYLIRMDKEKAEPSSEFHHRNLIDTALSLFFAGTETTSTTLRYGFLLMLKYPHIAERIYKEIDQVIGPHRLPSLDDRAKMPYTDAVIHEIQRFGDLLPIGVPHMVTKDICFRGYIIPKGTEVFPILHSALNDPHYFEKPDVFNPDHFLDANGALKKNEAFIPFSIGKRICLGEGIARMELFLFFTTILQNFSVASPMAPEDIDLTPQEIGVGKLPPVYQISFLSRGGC
T1 sequence (P24460 whole entry): as above
Chain of Cytochrome P450 3A11 (Q64459 whole entry): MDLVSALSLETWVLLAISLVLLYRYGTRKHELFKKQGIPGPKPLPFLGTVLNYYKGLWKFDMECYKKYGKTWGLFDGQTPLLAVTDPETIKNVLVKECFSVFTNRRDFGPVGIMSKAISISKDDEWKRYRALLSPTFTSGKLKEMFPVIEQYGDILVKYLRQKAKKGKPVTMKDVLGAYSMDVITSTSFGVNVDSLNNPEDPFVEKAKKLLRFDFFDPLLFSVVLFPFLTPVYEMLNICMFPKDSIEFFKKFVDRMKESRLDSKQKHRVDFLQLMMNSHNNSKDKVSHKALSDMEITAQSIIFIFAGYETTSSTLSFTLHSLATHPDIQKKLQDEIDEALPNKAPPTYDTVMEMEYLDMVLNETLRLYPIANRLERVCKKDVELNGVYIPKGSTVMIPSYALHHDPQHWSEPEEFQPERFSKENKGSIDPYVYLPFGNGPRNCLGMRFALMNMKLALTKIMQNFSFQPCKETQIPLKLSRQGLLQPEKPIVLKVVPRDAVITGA
Chain of Cytochrome P450 3A12 (P24463 whole entry): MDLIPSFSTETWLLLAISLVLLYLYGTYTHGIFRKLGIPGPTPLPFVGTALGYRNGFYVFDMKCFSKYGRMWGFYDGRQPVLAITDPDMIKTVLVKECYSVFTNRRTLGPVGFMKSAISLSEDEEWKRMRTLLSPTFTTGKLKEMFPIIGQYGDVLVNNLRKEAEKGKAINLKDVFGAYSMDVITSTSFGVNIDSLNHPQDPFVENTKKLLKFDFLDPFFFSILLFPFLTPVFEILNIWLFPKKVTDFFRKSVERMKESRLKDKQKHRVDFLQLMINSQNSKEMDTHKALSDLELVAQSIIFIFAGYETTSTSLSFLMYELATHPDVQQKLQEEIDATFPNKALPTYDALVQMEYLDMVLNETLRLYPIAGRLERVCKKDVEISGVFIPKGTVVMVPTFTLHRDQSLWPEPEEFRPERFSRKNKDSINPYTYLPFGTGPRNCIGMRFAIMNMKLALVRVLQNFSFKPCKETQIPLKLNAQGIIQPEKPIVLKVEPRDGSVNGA
Chain of Cytochrome P450 4A4 (P10611 whole entry): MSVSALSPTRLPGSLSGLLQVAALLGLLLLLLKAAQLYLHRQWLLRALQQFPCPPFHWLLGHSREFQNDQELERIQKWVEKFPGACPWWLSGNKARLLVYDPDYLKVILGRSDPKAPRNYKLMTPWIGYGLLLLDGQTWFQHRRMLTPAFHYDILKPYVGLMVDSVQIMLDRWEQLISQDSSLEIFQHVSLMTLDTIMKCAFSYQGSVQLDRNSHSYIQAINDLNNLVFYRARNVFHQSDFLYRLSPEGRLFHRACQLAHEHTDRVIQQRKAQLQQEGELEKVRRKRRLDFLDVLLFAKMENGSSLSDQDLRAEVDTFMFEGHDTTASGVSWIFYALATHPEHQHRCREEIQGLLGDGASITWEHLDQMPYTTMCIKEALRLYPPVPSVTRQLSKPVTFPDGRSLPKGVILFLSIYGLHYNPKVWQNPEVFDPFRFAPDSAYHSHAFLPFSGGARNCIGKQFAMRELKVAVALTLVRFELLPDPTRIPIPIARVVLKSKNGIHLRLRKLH
Chain of Cytochrome P450 11B1, mitochondrial (P15150 whole entry): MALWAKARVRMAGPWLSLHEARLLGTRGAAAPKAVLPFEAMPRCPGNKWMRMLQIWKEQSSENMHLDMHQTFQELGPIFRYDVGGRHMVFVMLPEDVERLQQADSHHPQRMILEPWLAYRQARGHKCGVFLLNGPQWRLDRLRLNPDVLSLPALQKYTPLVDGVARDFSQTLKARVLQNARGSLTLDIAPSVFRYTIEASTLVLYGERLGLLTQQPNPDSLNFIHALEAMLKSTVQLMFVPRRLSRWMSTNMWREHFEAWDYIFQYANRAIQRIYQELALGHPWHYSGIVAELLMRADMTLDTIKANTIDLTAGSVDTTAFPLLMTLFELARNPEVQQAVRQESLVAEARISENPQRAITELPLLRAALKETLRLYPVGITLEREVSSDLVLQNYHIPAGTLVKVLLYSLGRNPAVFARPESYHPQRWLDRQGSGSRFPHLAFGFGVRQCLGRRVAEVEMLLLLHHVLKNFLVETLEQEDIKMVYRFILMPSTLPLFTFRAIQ
Chain of CYP2E1 (P05182 whole entry): as the sequence (P05182 whole entry) above

SMILES: C=CC[C@]12CC[C@H]3[C@@H](CCC4=CC(=O)CC[C@@]43C)[C@@H]1CC[C@@H]2C(C)=O
mechanism based inhibition [1]: Cytochrome P450 mechanistic inhibitor: PMID 8645613

kinact (CYP2B11 [2]): 0.025 s⁻¹
Ki (Cytochrome P450 2B11 [3]): 350 nM
kinact (CYP2B11 [4]): 0.00933 s⁻¹
Ki (Cytochrome P450 2B11 [5]): 460 nM
SMILES: CC(Nn1nnc2ccccc21)c1ccccc1 (configuration not stated)
mechanism based inhibition (Cytochrome P450 3A12): Cytochrome P450 mechanistic inhibitor: PMID 15677349

SMILES: CC#Cc1ccc2c(ccc3ccccc32)c1
mechanism based inhibition (Cytochrome P450 1A2 [6]): Cytochrome P450 mechanistic inhibitor: PMID 9760279
kinact (CYP1A1): 0.005 s⁻¹
Ki (Cytochrome P450 1A1 [7]): 10 nM
mechanism based inhibition (Cytochrome P450 1A1 [8]): Cytochrome P450 mechanistic inhibitor: PMID 9760279
Ki (Cytochrome P450 1A2 [9]): 30 nM
kinact (CYP1A2): 0.005 s⁻¹

SMILES: C#CCCCC(O)CCCCCCCCCCC(=O)O (configuration not stated)
mechanism based inhibition (Cytochrome P450 4A4): Cytochrome P450 mechanistic inhibitor: PMID 9168258

SMILES: C=C(C)[C@@H]1CCC(C)=C[C@H]1c1c(O)cc(CCCCC)cc1O [CANNABIDIOL]
mechanism based inhibition (Cytochrome P450 3A11): Cytochrome P450 mechanistic inhibitor: PMID 9778318

kinact (CYP2E1): 0.00533 s⁻¹
Ki (Cytochrome P450 2E1 [11]): 188000 nM
SMILES: C=CCS(=O)(=O)CC=C [DIALLYLSULFONE]
mechanism based inhibition (Cytochrome P450 2E1 [10]): Cytochrome P450 mechanistic inhibitor: PMID 9084912
